Source: the supplement of paper PMC6045584
± gives the standard deviation of the averaged measurements.

Tests used:
SAPACITABINE [1] = compound: T1, CCCCCCCCCCCCCCCC(=O)Nc1ccn([C@@H]2O[C@H](CO)[C@@H](O)[C@@H]2C#N)c(=O)n1 [SAPACITABINE]; assay: surviving fraction relative to DMSO-only wells; higher = less growth inhibition; settings: exposure time: 5 days
Procedure, shortened: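 Five days of continuous inhibitor exposure, at 0.5, 1, 5, 10, 50, 100, 500 and 1000 nM, followed a 24-hour period after log-phase tumour cell lines were seeded at 250–500 cells per well in 384-well plates. Surviving fraction was derived from CellTiter-Glo luminescence relative to the median of DMSO-only wells. Plates were read after 10 minutes at room temperature, and lines screened three times were kept only if replicate Pearson r >0.7 and median Z' >0.3.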

CANERTINIB = compound: C=CC(=O)Nc1cc2c(Nc3ccc(F)c(Cl)c3)ncnc2cc1OCCCN1CCOCC1 [CANERTINIB]; assay: area under dose-response curve of surviving fraction (unscaled, Aref=0) (surviving fraction x log10(nM)); higher = more resistant; settings: exposure time: 5 days; dose range 0.5-1000 nM
Procedure, shortened: (§1)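 Three screens per tumour cell line were run in 384-well plates at eight inhibitor concentrations from 0.5 to 1000 nM over five days. Surviving fractions, from CellTiter-Glo luminescence normalised to DMSO-only wells, were fitted with 3-parameter logistic curves in the drc R package. The reported area under the curve is the unscaled activity area. It spans log10 dose, and Aref is 0.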

SNX-5422 = compound: CC1(C)CC(=O)c2c(C(F)(F)F)nn(-c3ccc(C(N)=O)c(N[C@H]4CC[C@H](OC(=O)CN)CC4)c3)c2C1 [SNX-5422]; assay: as above; settings: exposure time: 5 days; dose range 0.5-1000 nM
Procedure, shortened: as §1

SAPACITABINE [2] = compound: T1, SAPACITABINE; assay: as above; settings: exposure time: 5 days; dose range 0.5-1000 nM
Procedure, shortened: as §1

BI-2536 = compound: CC[C@@H]1C(=O)N(C)c2cnc(Nc3ccc(C(=O)NC4CCN(C)CC4)cc3OC)nc2N1C1CCCC1 [BI-2536]; assay: as above; settings: exposure time: 5 days; dose range 0.5-1000 nM
Procedure, shortened: as §1

AFATINIB = compound: CN(C)C/C=C/C(=O)Nc1cc2c(Nc3ccc(F)c(Cl)c3)ncnc2cc1O[C@H]1CCOC1 [AFATINIB]; assay: as above; settings: exposure time: 5 days; dose range 0.5-1000 nM
Procedure, shortened: as §1

MDV3100 = compound: CNC(=O)c1ccc(N2C(=S)N(c3ccc(C#N)c(C(F)(F)F)c3)C(=O)C2(C)C)cc1F [MDV3100]; assay: as above; settings: exposure time: 5 days; dose range 0.5-1000 nM
Procedure, shortened: as §1

[3] = compound: Cn1cc(C2=Nc3cc(NC(=O)C(N)C4CCCCC4)cc4c3C2=CNNC4=O)cn1; assay: as above; settings: exposure time: 5 days; dose range 0.5-1000 nM
Procedure, shortened: as §1

TIOGUANINE = compound: Nc1nc2[nH]cnc2c(=S)[nH]1 [TIOGUANINE]; assay: as above; settings: exposure time: 5 days; dose range 0.5-1000 nM
Procedure, shortened: as §1

Test System | surviving fraction (SAPACITABINE [1]; 0.5 nM) | surviving fraction (SAPACITABINE [1]; 1 nM) | surviving fraction (SAPACITABINE [1]; 5 nM) | surviving fraction (SAPACITABINE [1]; 10 nM) | surviving fraction (SAPACITABINE [1]; 50 nM) | surviving fraction (SAPACITABINE [1]; 100 nM) | surviving fraction (SAPACITABINE [1]; 500 nM) | surviving fraction (SAPACITABINE [1]; 1000 nM) | area under dose-response curve (CANERTINIB) | area under dose-response curve (SNX-5422) | area under dose-response curve (SAPACITABINE [2]) | area under dose-response curve (BI-2536) | area under dose-response curve (AFATINIB) | area under dose-response curve (MDV3100) | area under dose-response curve [3] | area under dose-response curve (TIOGUANINE)
HCC38 BREAST | 0.958 ± 0.075 | 0.931 ± 0.092 | 1.02 ± 0.21 | 0.801 ± 0.02 | 0.594 ± 0.17 | 0.525 ± 0.04 | 0.414 ± 0.086 | 0.274 ± 0.088 | 3.55 | 1.97 | 2.32 | 1.35 | 3.94 | 4.04 | 1.69 | 3.75
CAL51 BREAST | 0.878 ± 0.1 | 0.838 ± 0.14 | 0.977 ± 0.074 | 0.929 ± 0.1 | 0.789 ± 0.0083 | 0.533 ± 0.13 | 0.112 ± 0.022 | 0.0657 ± 0.014 | 3.08 | 1.93 | 2.32 | 0.68 | 3.19 | 3.24 | 2.86 | 3.31
COLO320DM LARGE INTESTINE | 1.01 ± 0.054 | 0.88 ± 0.044 | 1.08 ± 0.043 | 0.386 ± 0.015 | 0.887 ± 0.057 | 0.689 ± 0.0072 | 0.597 ± 0.024 | 0.185 ± 0.0083 | 3.25 | 2.19 | 2.44 | 1.68 | 3.24 | 3.31 | 3.21 | 3.52
HMLE3 BREAST | 0.846 ± 0.045 | 0.738 ± 0.037 | 0.898 ± 0.017 | 0.244 ± 0.014 | 0.892 ± 0.095 | 0.67 ± 0.11 | 0.344 ± 0.039 | 0.175 ± 0.0071 | 2.91 | 1.89 | 2.03 | 1.26 | 3.07 | 3.23 | 2.79 | 3.06
